Reference: ChEMBL document CHEMBL5120912, “Structure Revision of Trichomide D by Total Synthesis” (J Nat Prod, 2022)

Legend:
Format in all cases: functional, cell-based
HeLa S3 = experiment: Cytotoxicity against human HeLa S3 cells assessed as inhibition of cell growth incubated for 72 hrs by MTT assay; details: HeLa S3, 72 h
MCF7 [1] = experiment: Cytotoxicity against human MCF7 cells assessed as inhibition of cell growth incubated for 72 hrs by MTT assay; details: MCF7, 72 h
HL-60 = experiment: Cytotoxicity against human HL-60 cells assessed as inhibition of cell growth incubated for 24 hrs by MTT assay; details: HL-60, 24 h
SW480 = experiment: Cytotoxicity against human SW480 cells assessed as inhibition of cell growth incubated for 24 hrs by MTT assay; details: SW480, 24 h
MCF7 [2] = experiment: Cytotoxicity against human MCF7 cells assessed as inhibition of cell growth incubated for 24 hrs by MTT assay; details: MCF7, 24 h

CC[C@H](C)[C@@H]1NC(=O)[C@@H]2[C@@H](C)CCN2C(=O)[C@@H](C[C@H](O)CO)OC(=O)CCNC(=O)[C@H](C)N(C)C(=O)[C@H]([C@@H](C)CC)N(C)C1=O
IC50 (HeLa S3): > 10000 nM | IC50 (MCF7 [1]): > 10000 nM

CC[C@H](C)[C@@H]1NC(=O)[C@@H]2[C@@H](C)CCN2C(=O)[C@@H](C[C@@H](O)CCl)OC(=O)CCNC(=O)[C@H](C)N(C)C(=O)[C@H]([C@@H](C)CC)N(C)C1=O
IC50 (HeLa S3): 400 nM | IC50 (HL-60): 149 nM | IC50 (SW480): 107 nM | IC50 (MCF7 [2]): 79 nM | IC50 (MCF7 [1]): 2800 nM

CC[C@H](C)[C@@H]1NC(=O)[C@@H]2[C@@H](C)CCN2C(=O)[C@@H](C[C@H](O)CCl)OC(=O)CCNC(=O)[C@H](C)N(C)C(=O)[C@H]([C@@H](C)CC)N(C)C1=O
IC50 (HeLa S3): 31 nM | IC50 (MCF7 [1]): 340 nM

CO[C@@]12[C@H](COC(N)=O)C3=C(C(=O)C(C)=C(N)C3=O)N1C[C@@H]1N[C@@H]12 [MITOMYCIN]
IC50 (HeLa S3): 520 nM | IC50 (MCF7 [1]): 1800 nM
